Experimental findings from patent publication US11634425B2, “Pharmaceutical compounds” (priority 2019, dated 2023) are described below.

Broadly, the EC50 is the concentration needed to bring the measured effect to its halfway point. Higher therefore signals a need for much substance. For orientation: CC50 means the concentration that lowers cell viability or growth by half.

SMILES strings stand for the structures. Where two headings read alike, the source gives them in different places.

Data set [1] concerns RSV A2. The data set can be described thus: RSV plaque reduction assay. The data set is classed as cell-based, respiratory syncytial virus (RSV). The conditions noted are these: human respiratory syncytial virus, HepG2, Hep-G2 cells, mean of at least two experiments. In outline:
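EC50 is the 50% reduction in immunostained plaque count versus virus-control wells, interpolated from variable-slope 4-parameter fits and averaged over at least two runs. Hep-G2 cells were infected with 100 PFU/well RSV A2 premixed with compound, with the inoculum removed after 2 h. Incubation continued at 37 °C for 2 days under a CMC overlay with compound.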
(In general: Plaques are areas of infected cells; plaque reduction assays count them against a control.)

Data set [2] in a line: in vitro. The conditions noted are these: microsomes, pH 7.4, 1 μM compound, 0.5 mg/mL protein, read-out: Liver Microsomal Stability t1/2. The data set is classed as in vitro ADME. The method, then: Compounds were subjected to the following assays to investigate liver microsomal stability and hepatocyte stability.
Microsomal Incubation: Experimental Procedure
Pooled liver microsomes were purchased from a reputable commercial supplier and stored at −80° C. prior to use. Microsomes (final protein concentration 0.5 mg/mL), 0.1 M phosphate buffer pH 7.4 and test compound (final substrate concentration 1 μM; final DMSO concentration 0.25%) were pre-incubated at 37° C. prior to the addition of NADPH (final concentration 1 mM) to initiate the reaction. The final incubation volume was 50 μL. A control incubation was included for each compound tested where 0.1 M phosphate buffer pH 7.4 was added instead of NADPH (minus NADPH). Two control compounds were included with each species. All incubations were performed singularly for each test compound. Each compound was incubated for 0, 5, 15, 30 and 45 min. The control (minus NADPH) was incubated for 45 min only. The reactions were stopped by transferring incubate into acetonitrile at the appropriate time points, in a 1:3 ratio. The termination plates are centrifuged at 3,000 rpm for 20 min at 4° C. to precipitate the protein. Following protein precipitation, the sample supernatants were combined in cassettes of up to 4 compounds, internal standard added, and samples analysed by LC-MS/MS. From a plot of ln peak area ratio (compound peak area/internal standard peak area) against time, the gradient of the line was determined. Subsequently, half-life (t1/2) and intrinsic clearance (CLint) were calculated.
In general terms: Microsomes from liver hold many membrane-bound enzymes, among them those of drug oxidation.

Data set [3] can be described thus: Cell cytotoxicity (CC50). The data set is classed as cell-based. The conditions noted are these: human; mean of at least two experiments. In outline: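 Values are means of ≥2 independent runs, rounded to whole units, from 4-parameter variable-slope curve fits. Toxicity measured in Hep-G2 cells run alongside RSV plaque-reduction assays.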

On to `[2H]C([2H])([2H])Oc1ccc2nc(-c3ccccc3)c(C(=O)N[C@H]3N=C(c4ccccc4)c4cccc(F)c4NC3=O)n2n1` [Example 114, N-[(3S)-9-fluoro-2-oxo-5-phenyl-1,3-dihydro-1,4-benzodiazepin-3-yl]-2-phenyl-6-(trideuteriomethoxy)imidazo[1,2-b]pyridazine-3-carboxamide], for which the midpoint of the response in data set [1], the EC50, lay at 39 nM. For the same molecule, the half-life at 1 μM in data set [2] (dog) was determined as 330 min; in data set [2] (human), 246 min; in data set [2] (rat), 122 min. Moreover, the CC50 in data set [3] was above 25 µM.
For `CCc1ccc(-c2nn3cccnc3c2C(=O)N[C@H]2N=C(c3ccccc3)c3ccccc3NC2=O)cn1` [Example 54, 2-(6-Ethylpyridin-3-yl)-N-[(3S)-2-oxo-5-phenyl-1,3-dihydro-1,4-benzodiazepin-3-yl]pyrazolo[1,5-a]pyrimidine-3-carboxamide] the same measures were 151 nM, 79 min, 175 min, 77 min and above 25 µM.
As to `Cc1cnc(F)c(-c2nn3cccnc3c2C(=O)N[C@H]2N=C(c3ccccc3)c3cccc(F)c3NC2=O)c1` [Example 32, 2-(2-Fluoro-5-methylpyridin-3-yl)-N-[(3S)-9-fluoro-2-oxo-5-phenyl-1,3-dihydro-1,4-benzodiazepin-3-yl]pyrazolo[1,5-a]pyrimidine-3-carboxamide], a half-maximal response in data set [1] (EC50) required 86 nM. In addition, the half-life at 1 μM in data set [2] (dog) was 227 min; in data set [2] (human), 335 min; in data set [2] (rat) it was 77.1 min. This molecule returned a CC50 in data set [3] above 25 µM.
For `Cc1ccc2nc(-c3ccc(F)cc3F)c(C(=O)N[C@H]3N=C(c4ccccc4)c4cccc(F)c4NC3=O)n2n1` [Example 91, 2-(2,4-Difluorophenyl)-N-[(3S)-9-fluoro-2-oxo-5-phenyl-1,3-dihydro-1,4-benzodiazepin-3-yl]-6-methylimidazo[1,2-b]pyridazine-3-carboxamide] the same measures were 17 nM, 268 min, 101 min, 36.6 min and above 25 µM.
For the molecule `O=C(N[C@H]1N=C(c2ccccc2)c2ccccc2NC1=O)c1c(-c2ccccc2F)nn2ccc(N3CCOCC3)nc12` [Example 39, 2-(2-Fluorophenyl)-5-(morpholin-4-yl)-N-[(3S)-2-oxo-5-phenyl-2,3-dihydro-1H-1,4-benzodiazepin-3-yl]pyrazolo[1,5-a]pyrimidine-3-carboxamide], the EC50 in data set [1] was 62 nM. For the same molecule, the half-life at 1 μM stood at 15.3 min in data set [2] (dog), 79.8 min in data set [2] (human) and 32.3 min in data set [2] (rat). This molecule had a cytotoxic concentration (CC50) in data set [3] above 25 µM.
As for `O=C(N[C@H]1N=C(c2ccccc2)c2cccc(F)c2NC1=O)c1c(-c2ccc(F)cc2F)nc2cccnn12` [Example 89, 2-(2,4-Difluorophenyl)-N-[(3S)-9-fluoro-2-oxo-5-phenyl-1,3-dihydro-1,4-benzodiazepin-3-yl]imidazo[1,2-b]pyridazine-3-carboxamide], the response in data set [1] was half-maximal at 19 nM (EC50). Further, the half-life at 1 μM came to 1080 min in data set [2] (dog), 737 min in data set [2] (human) and 186 min in data set [2] (rat). This molecule also came in with a CC50 in data set [3] above 25 µM.
Take `Cn1ncc2cc(-c3nn4cccnc4c3C(=O)N[C@H]3N=C(c4ccccc4)c4cccc(F)c4NC3=O)ccc21` [Example 63, N-[(3S)-9-fluoro-2-oxo-5-phenyl-1,3-dihydro-1,4-benzodiazepin-3-yl]-2-(1-methylindazol-5-yl)pyrazolo[1,5-a]pyrimidine-3-carboxamide]: the EC50 in data set [1] amounted to 66 nM. Further, the half-life at 1 μM in data set [2] (dog) was 152 min; in data set [2] (human), 113 min; in data set [2] (rat), 227 min. For the same molecule, the CC50 in data set [3] was above 25 µM.
For `CN1C[C@H]2C[C@@H]1CN2c1ccc2nc(-c3ccccc3)c(C(=O)N[C@H]3N=C(c4ccccc4)c4cccc(F)c4NC3=O)n2n1` [Example 81, N-[(3S)-9-fluoro-2-oxo-5-phenyl-1,3-dihydro-1,4-benzodiazepin-3-yl]-6-[(1R,4R)-5-methyl-2,5-diazabicyclo[2.2.1]heptan-2-yl]-2-phenylimidazo[1,2-b]pyridazine-3-carboxamide] the same measures were 114 nM, 113 min, 29.3 min, 89.6 min and 8.15 µM.
On to `O=C(N[C@H]1N=C(c2ccccc2)c2cccc(F)c2NC1=O)c1c(-c2cccc(F)c2F)nn2cccnc12` [Example 42, 2-(2,3-Difluorophenyl)-N-[(3S)-9-fluoro-2-oxo-5-phenyl-1,3-dihydro-1,4-benzodiazepin-3-yl]pyrazolo[1,5-a]pyrimidine-3-carboxamide], for which the EC50 in data set [1] amounted to 41 nM. Besides, the half-life at 1 μM in data set [2] (dog) is 730 min; in data set [2] (human), above 140 min; in data set [2] (rat) it was 170 min. In data set [3], this molecule came in with a 50% cytotoxic concentration (CC50) above 14 µM.
The molecule `O=C(N[C@H]1N=C(c2ccccc2)c2cccc(F)c2NC1=O)c1c(-c2ccccc2F)nc2ccc(Cl)nn12` [Example 116, 6-Chloro-N-[(3S)-9-fluoro-2-oxo-5-phenyl-1,3-dihydro-1,4-benzodiazepin-3-yl]-2-(2-fluorophenyl)imidazo[1,2-b]pyridazine-3-carboxamide] yielded an EC50 in data set [1] of 33 nM. The half-life at 1 μM is above 140 min in data set [2] (dog), above 140 min in data set [2] (human) and 57.4 min in data set [2] (rat). Moreover, in data set [3], the CC50 was above 25 µM.
With `Cc1ccnc2c(C(=O)N[C@H]3N=C(c4ccccc4)c4ccccc4NC3=O)c(-c3ccccc3F)nn12` [Example 37, 2-(2-Fluorophenyl)-7-methyl-N-[(3S)-2-oxo-5-phenyl-1,3-dihydro-1,4-benzodiazepin-3-yl]pyrazolo[1,5-a]pyrimidine-3-carboxamide], the midpoint of the response in data set [1], the EC50, lay at 39 nM. The half-life at 1 μM was 117 min in data set [2] (dog), above 140 min in data set [2] (human) and 50.5 min in data set [2] (rat). In addition, the CC50 in data set [3] is above 25 µM.
For `O=C(N[C@H]1N=C(c2ccccc2)c2ccccc2NC1=O)c1c(-c2ccc(F)cc2F)nn2cccnc12` [Example 4, 2-(2,4-difluorophenyl)-N-[(3S)-2-oxo-5-phenyl-1,3-dihydro-1,4-benzodiazepin-3-yl]pyrazolo[1,5-a]pyrimidine-3-carboxamide] the same measures were 62 nM, 236 min, above 140 min, above 140 min and above 25 µM.
`CC(C)Nc1ccc(-c2nn3cccnc3c2C(=O)N[C@H]2N=C(c3ccccc3)c3ccccc3NC2=O)c(F)n1` [Example 69, 2-[2-Fluoro-6-(propan-2-ylamino)pyridin-3-yl]-N-[(3S)-2-oxo-5-phenyl-1,3-dihydro-1,4-benzodiazepin-3-yl]pyrazolo[1,5-a]pyrimidine-3-carboxamide] registered an EC50 in data set [1] of 19 nM. Moreover, the half-life at 1 μM in data set [2] (dog) worked out at 26.8 min; in data set [2] (human), 193 min; in data set [2] (rat), 146 min. The molecule also returned a CC50 in data set [3] above 25 µM.
For `COc1ccc2nc(-c3ccccc3)c(C(=O)N[C@H]3N=C(c4ccccc4)c4cccc(F)c4NC3=O)n2n1` [Example 113, N-[(3S)-9-fluoro-2-oxo-5-phenyl-1,3-dihydro-1,4-benzodiazepin-3-yl]-6-methoxy-2-phenylimidazo[1,2-b]pyridazine-3-carboxamide] the same measures were 41 nM, 241 min, 518 min, 87.4 min and above 25 µM.
Regarding `Cc1cncc(-c2nn3cccnc3c2C(=O)N[C@H]2N=C(c3ccccc3)c3cccc(F)c3NC2=O)c1` [Example 64, N-[(3S)-9-fluoro-2-oxo-5-phenyl-1,3-dihydro-1,4-benzodiazepin-3-yl]-2-(5-methylpyridin-3-yl)pyrazolo[1,5-a]pyrimidine-3-carboxamide], the EC50 in data set [1] turned out to be 100 nM. Moreover, the results for the half-life at 1 μM in data set [2] (dog), in data set [2] (human) and in data set [2] (rat) were 215 min, 1450 min and 102 min, respectively. Also, in data set [3], the CC50 was above 18.8 µM.
For `O=C(N[C@H]1N=C(c2ccccc2)c2cccc(F)c2NC1=O)c1c(-c2ccc(C3CC3)nc2)nn2cccnc12` [Example 30, 2-(6-Cyclopropylpyridin-3-yl)-N-[(3S)-9-fluoro-2-oxo-5-phenyl-1,3-dihydro-1,4-benzodiazepin-3-yl]pyrazolo[1,5-a]pyrimidine-3-carboxamide] the same measures were 62 nM, 293 min, 181 min, 266 min and above 25 µM.
